Measured values published in patent publication US20260248799A1, “COMBINATIONS OF RETINALDEHYDE DEHYDROGENASE 1 (RALDH1) INHIBITORS AND IMMUNOSTIMULATORS AND METHODS USING SAME” (The Trustees of the University of Pennsylvania, priority 2023, published 2026).

Tested on: Huh1 tumors
Test: Huh1 tumors in nude mice
Assay type: in vivo, mouse
Settings: huh1 in immunodeficient mice; i.p, 10 mg/kg every day
Experimental: FIG. 27A: Huh1 tumor-bearing nude mice were treated with C86 (i.p, 10 mg/kg) every day. Three or more independent experiments with at least three replicates per sample type. Two-tailed T test. *p<0.05, **p<0.01, ***p<0.001. FIG. 27B: Equal numbers of Raldh1-KO Huh7 and parental Huh7 cells were seeded and viable cells counted over time. […] FIG. 27C: NU/J mice harboring flank Huh7 tumors were treated i.p with C86 daily or with liposomal chlodronate (CloLipo, 200 μl/mouse) every four days. Tumors were harvested 13 days post tumor induction and analyzed for the frequency (left graph) and number (right graph) of the macrophages (CD45+ F4/80+) under different treatment conditions (X-axis). Three or more independent experiments with at least three replicates per sample type. Two-tailed T test. *p<0.05, **p<0.01, ***p<0.001. FIG. 27D: Pictures depicting size differences amongst tumors in experiment outlined in FIG. 26G. […]
Cultured Huh7, Huh1, Hepa 1-6, Hep55, and FS (as indicated in figure legends) tumor cells were detached using 0.25% trypsin (Gibco, catalog #25200056), washed once with 1×PBS, and counted before implantation. […] Tumor dimensions were measured using a caliper starting at the day indicated in the accompanying figure legend and every two to three days thereafter; volume was calculated by using formula Length*Width^2/2. […]

SMILES: CS(=O)(=O)N1CCN(C(=O)c2cnc3ccc(F)cc3c2N2CCC(C#N)(c3ccccc3)CC2)CC1 [Compound C-86, 1-(6-fluoro-3-(4-(methylsulfonyl)piperazine-1-carbonyl)quinolin-4-yl)-4-phenylpiperidine-4-carbonitrile]
- tumor inhibition: significant tumor inhibition
